Source: patent US7037644B1, “Means and methods for monitoring non-nucleoside reverse transcriptase inhibitor antiretroviral therapy and guiding therapeutic decisions in the treatment of HIV/AIDS” (ViroLogic, Inc., priority 1998, dated 2006)
Several values for one entry are separate records, joined by “and”; a condition that tells them apart may be missing. Equal values may be shown once.

Assays:
Type in all cases: cell-based, HIV-1
K101E-G190S-RTV = experiment: Phenotypic susceptibility assay (site directed mutant RTV); conditions: for change in susceptibility (fold, IC50) vs wild type control RTV: K101E and G190S; for change in susceptibility: mutations at codons 101 and 190 (190S)
Source text: (§1) The resistance test vectors containing a functional luciferase gene cassette were constructed and host cells were transfected with the resistance test vector DNA. The resistant test vectors contained patient-derived reverse transcriptase and protease sequences that were either susceptible or resistant to the antiretroviral agents, such as nucleoside reverse transcriptase inhibitors, non-nucleoside reverse transcriptase inhibitors and protease inhibitors. The resistance test vector viral particles produced by transfecting the resistance test vector DNA into host cells, either in the presence or absence of protease inhibitors, were used to infect target host cells grown either in the absence of NRTI or NNRTI or in the presence of increasing concentrations of the drug. The amount of luciferase activity produced in infected target host cells in the presence of drug was compared to the amount of luciferase produced in infected target host cells in the absence of drug. Drug resistance was measured as the amount of drug required to inhibit by 50% the luciferase activity detected in the absence of drug (inhibitory concentration 50%, IC50). The IC50 values were determined by plotting percent drug inhibition vs. log10 drug concentration.
(§2) Host cells were seeded in 10-cm-diameter dishes and were transfected several days after plating with resistance test vector plasmid DNA and the envelope expression vector. Transfections were performed using a calcium-phosphate precipitation procedure. The cell culture media containing the DNA precipitate was replaced with fresh medium, from one to 24 hours, after transfection. Cell culture media containing resistance test vector viral particles was harvested one to four days after transfection and was passed through a […] filter before being stored at […]. HIV capsid protein (p24) levels in the harvested cell culture media were determined by an EIA method as described by the manufacturer (SIAC; Frederick, Md.). Before infection, target cells (293 and 293/T) were plated in cell culture media. Control infections were performed using cell culture media from mock transfections (no DNA) or transfections containing the resistance test vector plasmid DNA without the envelope expression plasmid. One to three or more days after infection the media was removed and cell lysis buffer (Promega) was added to each well. Cell lysates were assayed for luciferase activity (FIG. 3). The inhibitory effect of the drug was determined using the following equation: % luciferase inhibition=1−(RLUluc [drug]÷RLUluc)×100 where RLUluc [drug] is the relative light unit of luciferase activity in infected cells in the presence of drug and RLUluc is the Relative Light Unit of luciferase activity in infected cells in the absence of drug. IC50 values were obtained from the sigmoidal curves that were generated from the data by plotting the percent inhibition of luciferase activity vs. the log10 drug concentration. The drug inhibition curves are shown in (FIG. 3).
(§3) The K101E and G190S mutations were introduced alone and in combination into resistance test vectors using the megaprimer method for site-directed mutagenesis (Sakar and Sommar, Ibid.). Resistance test vectors containing the K101E mutation (K101E-RTV), the G190S mutation (G190S-RTV) were then tested using the phenotypic assay described earlier and the results were compared to those determined using a genetically defined resistance test vector that was wild type at positions 101 and 190. We determined the pattern of phenotypic susceptibility to the NNRTIs, delavirdine, nevirapine and efavirenz, in all three vectors.

K101E-RTV = experiment: as above; conditions: K101E alone
Source text: as §1, §2, §3

Y188L-RTV = experiment: as above; conditions: for loss of susceptibility (fold, IC50) vs wild type control RTV: Y188L alone; for change in susceptibility: mutation at codon 188
Source text: as §1, §2
The Y188L mutation was introduced into the resistance test vector using the mega-primer method for site-directed mutagenesis (Sakar and Sommar, Ibid.). A resistance test vector containing the Y188L mutation (Y188L-RTV) was then tested using the phenotypic assay described earlier and the results were compared to those determined using a genetically defined resistance test vector that was wild type at position 188. We determined the pattern of phenotypic susceptibility to the NNRTIs, delavirdine, nevirapine and efavirenz, in the Y188L-RTV. […] The approximate 100-fold loss of susceptibility to efavirenz was not as high as had been previously reported.

Y181C-RTV = experiment: as above; conditions: for change in susceptibility: Y181C, FIG. 5
Source text: as §1, with “Drug resistance was measured as the amount of drug required to inhibit by 50% the luciferase activity detected in the absence of drug (inhibitory concentration 50%, IC50).” left out
Host cells were seeded in 10-cm-diameter dishes and were transfected several days after plating with resistance test vector plasmid DNA and the envelope expression vector. […] HIV capsid protein (p24) levels in the harvested cell culture media were determined by an EIA method as described by the manufacturer (SIAC; Frederick, Md.). […] The inhibitory effect of the drug was determined using the following equation: % luciferase inhibition=1−(RLUluc [drug]÷RLUluc)×100 where RLUluc [drug] is the relative light unit of luciferase activity in infected cells in the presence of drug and RLUluc is the Relative Light Unit of luciferase activity in infected cells in the absence of drug. […]
The Y181C and A98G mutations were introduced alone and in combination into resistance test vectors using the mega-primer method for site-directed mutagenesis (Sakar and Sommar, Ibid.). […] We determined the pattern of phenotypic susceptibility to the NNRTIs, delavirdine, neviraphine and efavirenz, in the three vectors. […]

[1] = test system: RTV-644 (RT K101E, G190S); experiment: Phenotypic susceptibility assay (patient RTV); conditions: for decrease in susceptibility (fold, IC50): patient RTV pool; for change in susceptibility: patient virus vs reference virus
Source text: as §1
as §2, with “Control infections were performed using cell culture media from mock transfections (no DNA) or transfections containing the resistance test vector plasmid DNA without the envelope expression plasmid. One to three or more days after infection the media was removed and cell lysis buffer (Promega) was added to each well. Cell lysates were assayed for luciferase activity (FIG. 3).” left out, “IC50 values were obtained from the sigmoidal curves that were generated from the data by plotting the percent inhibition of luciferase activity vs. the log10 drug concentration. The drug inhibition curves are shown in (FIG. 3).” left out
A resistance test vector was constructed as described in Example 1 from a patient sample designated 97-644. […] RTV-644 was then tested using the phenotypic susceptibility assay to determine accurately and quantitatively the level of susceptibility to a panel of anti-retroviral drugs. […] An IC50 was determined for each drug tested. […]

A98G-RTV = experiment: Phenotypic susceptibility assay (site directed mutant RTV); conditions: for loss of susceptibility (fold, IC50) vs wild type control RTV: A98G alone; for change in susceptibility: mutation at codon 98
Source text: as §1, §2
The A98G mutation into the resistance test vector using the mega-primer method for site-directed mutagenesis (Sakar and Sommar, Ibid.). A resistance test vector containing the A98G mutation (A98G-RTV) was then tested using the phenotypic assay described earlier and the results were compared to those determined using a genetically defined resistance test vector that was wild type at position 98. We determined the pattern of phenotypic susceptibility to the NNRTIs, delavirdine, nevirapine and efavirenz, in the A98G-RTV.

| SMILES | change in susceptibility (fold, IC50) vs wild type control RTV (K101E-G190S-RTV) | change in susceptibility (K101E-G190S-RTV) | loss of susceptibility (fold, IC50) vs wild type control RTV (K101E-RTV) | loss of susceptibility (fold, IC50) vs wild type control RTV (Y188L-RTV) | change in susceptibility (Y188L-RTV) | change in susceptibility (Y181C-RTV) | decrease in susceptibility (fold, IC50) [1] | change in susceptibility [1] | loss of susceptibility (fold, IC50) vs wild type control RTV (A98G-RTV) | change in susceptibility (A98G-RTV) | loss of susceptibility (fold, IC50) vs wild type control RTV (Y181C-RTV; Y181C alone) |
| --- | --- | --- | --- | --- | --- | --- | --- | --- | --- | --- | --- |
| CC(C)Nc1cccnc1N1CCN(C(=O)c2cc3cc(NS(C)(=O)=O)ccc3[nH]2)CC1 [delavirdine] | 1.4 fold | no change | 5 fold | 9 fold | slight decrease | resistance | 2.5 fold | little or no resistance | 3 fold | slight decrease | – |
| O=C1Nc2ccc(Cl)cc2[C@@](C#CC2CC2)(C(F)(F)F)O1 [efavirenz] | greater than 250 fold | substantial decrease | 5 fold | 109 fold and ~100 fold and 110 fold | significant decrease | – | – | – | 3 fold | slight decrease | 3 fold and 4 fold |
| Cc1ccnc2c1NC(=O)c1cccnc1N2C1CC1 [nevirapine] | greater than 800 fold | substantial decrease | 12 fold | greater than 800 fold | substantial decrease | resistance | 600 fold | resistant | 8 fold | slight decrease | – |
